Reference: US6875775B2, “Triphenylalkene derivatives and their use as selective estrogen receptor modulators” (Hormos Medical Oy LTD, priority 1999, dated 2005)
Like-named read-outs stand apart in the source and are kept apart here.

Key:
[1] = Overall hormonal profile summarised from Tables 2, 3 and 4
[2] = test system: MCF-7 cells; assay: cells; type: cell-based; conditions: for Emax / cytotoxicity at 10 µM / inhibition at 1 µM: Homo sapiens, MCF7, 96 h; for Emax / Maximal Agonism (% of E2): maximal growth stimulus at any concentration, 4 days; for Emax: read-out: Maximal Agonism (% of E2); for Maximal Cell Kill (% fraction of dead cells) / cytotoxicity at 10 µM: 10 μmol/l; for cytotoxicity at 10 µM: read-out: Maximal Cell Kill (% fraction of dead cells); for inhibition at 1 µM: read-out: Antagonism at 1 μM (% of full antagonism); for Killing of MCF-7 cells at the highest investigated concentration (in words): 10 μM, compounds with weak hormonal activity
Method: Evaluation of Estrogenic and Antiestrogenic Properties of Compounds in MCF-7 Cell Growth Experiments in Vitro
For experiments involving hormone or anti-hormone treatment, the cells in exponential growth phase were precultivated in the absence of estradiol for one day. […] After the incubation period the medium was removed. The exposure to study drugs was started immediately by adding fresh medium with 5% stripped serum. Half of the cells were grown with estradiol, half without estradiol. Study compounds (dissolved in ethanol in 0.01 M concentration and diluted with the growth medium as appropriate) were added. The final concentrations of the compounds were 1, 10, and 100 nM, and 1 and 10 μM. The cells were incubated for four days.
This method allows evaluation of estrogenicity based on the ability of the compounds to stimulate the growth of the estrogen-dependent cells in the absence of estradiol.
Estrogenicity was estimated by comparing the maximal growth stimulus (at any concentration) of study compound as percent from growth stimulus by estradiol (100% stimulus). […] At high concentrations molecules may also show toxicity. Toxicity was estimated as the fraction of dead cells (i.e. 100% means that all cells have died during the exposure).

[3] = test system: DMBA-induced rat mammary gland cancer; assay: Antitumor activity in DMBA-induced rat mammary gland cancer model; type: in vivo; conditions: 3 mg/kg p.o. daily for 5 weeks
Method: Estimation of Antitumor Activity in Vivo
Antitumor activity was estimated by using DMBA (dimethylbenz[a] anthracene) model. One single peroral dose of DMBA (12 mg) initiates mammary gland carcinogenesis. New compounds were administered for 5 weeks when palpable tumors appeared. Size of the tumors and number of new tumors were carefully estimated once a week until termination. The model has been described in detail by Kangas et al, 1986. The growth of the tumors was measured once a week. All tumors were classified according to their growth properties to progressing, stable and regressing ones. Disappeared tumors were separately calculated. The tumors were considered to be progressing, if the tumor volume grew more than 8-fold during the 5 weeks dosing period, and regressing if the tumor volume decreased to one fourth or less from the volume in the beginning. If tumor volume changed less or remained unchanged, the tumors were considered to be stable.

Molecule | Emax ([2]; Without estradiol (E2)) | cytotoxicity at 10 µM ([2]; With estradiol (E2)) | cytotoxicity at 10 µM ([2]; Without estradiol (E2)) | inhibition at 1 µM ([2]; With estradiol (E2)) | other results
OCCOc1cccc(/C(=C(/CCCl)c2ccccc2)c2ccccc2)c1 [No. 18, (Z)-2-[3-(4-Chloro-1,2-diphenyl-but-1-enyl)phenoxy]ethanol] | 30% | – | – | – | Estrogenic and antiestrogenic action (in words) [1]: weak estrogenic and no antiestrogenic action
ClCCOCCOc1ccc(/C(=C(/CCCl)c2ccccc2)c2ccc(Cl)cc2)cc1 [No. 14] | – | – | – | – | Antagonism at 1 μM (% of full antagonism) ([2]; With estradiol (E2)): 27 % of full antagonism; Maximal Cell Kill (% fraction of dead cells) ([2]; With estradiol (E2)): 57 % fraction of dead cells; Maximal Cell Kill (% fraction of dead cells) ([2]; Without estradiol (E2)): 10 % fraction of dead cells; Maximal Agonism (% of E2) ([2]; Without estradiol (E2)): 12 % of E2
CN(CCO)CCOc1ccc(/C(=C(/CCCl)c2ccccc2)c2ccccc2)cc1 [No. 22, (Z)-2-({2-[4-(4-Chloro-1,2-diphenyl-but-1-enyl)phenoxy]ethyl}methylamino)ethanol] | 1% | 41% | 15% | 12% | –
COc1cccc(/C(CCCl)=C(/c2ccccc2)c2ccc(OCCN3CCCCC3)cc2)c1 [No. 28, (Z)-1-(2-{4-[4-Chloro-2-(3-methoxyphenyl)-1-phenylbut-1-enyl]phenoxy}-ethyl)piperidine] | 3% | 92% | 86% | 18% | –
OCCOc1ccc(C(=C(CCCl)c2ccccc2)c2ccc(OCCO)cc2)cc1 [No. 16, 2-(4-{4-Chloro-1-[4-(2-hydroxyethoxy)phenyl]-2-phenyl-but-1-enyl}phenoxy)1-ethanol] | – | – | – | – | Killing of MCF-7 cells at the highest investigated concentration (in words) [2]: kill MCF-7 cells (human breast cancer cells) effectively
Oc1cccc(/C(=C(/CCCl)c2ccccc2)c2ccc(OCCn3ccnc3)cc2)c1 [No. 40, (Z)-3-{4-Chloro-1-[4-(2-imidazol-1-yl-ethoxy)phenyl]-2-phenyl-but-1-enyl}-phenol] | 0% | 46% | 63% | 3% | Killing of MCF-7 cells at the highest investigated concentration (in words) [2]: kill MCF-7 cells (human breast cancer cells) effectively
ClCC/C(=C(\c1ccccc1)c1ccc(OCCn2ccnc2)cc1)c1ccccc1 [No. 21, (Z)-1-{2-[4-(4-Chloro-1,2-diphenyl-but-1-enyl)phenoxy]ethyl}-1H-imidazole] | 5% | 91% | 80% | 0% | –
CCC(CO)Oc1ccc(/C(=C(/CCCl)c2ccccc2)c2ccccc2)cc1 (stereo not shown) [No. 46, (Z)-2-[4-(4-Chloro-1,2-diphenylbut-1-enyl)phenoxy]butan-1-ol] | 18% | 51% | 15% | 23% | –
CN(C)CCSc1ccc(/C(=C(/CCCl)c2ccccc2)c2ccccc2)cc1 [No. 32, (Z)-1-[4-(2-Dimethylaminoethylsulfanyl)phenyl]-1,2-diphenyl-4-chloro-but-1-ene] | 11% | 90% | 86% | 0% | Estrogenic and antiestrogenic action (in words) [1]: weak estrogenic and no antiestrogenic action
CCC(O)(CC)COc1ccc(/C(=C(/CCCl)c2ccccc2)c2ccccc2)cc1 [No. 45, (Z)-3-[4-(4-Chloro-1,2-diphenylbut-1-enyl)phenoxymethyl]pentan-3-ol] | 15% | 19% | 6% | 3% | –
C#CCN(C)CCOc1ccc(/C(=C(/CCCl)c2ccccc2)c2ccccc2)cc1 [No. 44, (Z)-{2-[4-(4-Chloro-1,2-diphenylbut-1-enyl)phenoxy]ethyl}-methylprop-2-ynylamine] | 24% | 95% | 78% | 8% | Estrogenic and antiestrogenic action (in words) [1]: weak estrogenic and no antiestrogenic action
COc1ccc(/C(=C(\CCCl)c2ccc(Cl)cc2)c2ccc(OCCN(C)C)cc2)cc1 [No. 26, (Z)-(2-{4-[4-Chloro-2-(4-chlorophenyl)-1-(4-methoxyphenyl)but-1-enyl]phenoxy}-ethyl)dimethylamine] | – | – | – | – | Killing of MCF-7 cells at the highest investigated concentration (in words) [2]: kill MCF-7 cells (human breast cancer cells) effectively
CN(C)CCOc1ccc(/C(=C(/CCCl)c2ccccc2)c2ccccc2)cc1 [Toremifene, reference compound] | – | – | – | – | Disappeared tumors (per cent of total tumor number) [3]: 10%; Growing tumors (per cent of total tumor number) [3]: 31%; Regressing tumors (per cent of total tumor number) [3]: 11%; Stable tumors (per cent of total tumor number) [3]: 51%
CCCCN(C)C(=O)CCCCCCCCCC[C@@H]1Cc2cc(O)ccc2[C@H]2CC[C@]3(C)[C@@H](O)CC[C@H]3[C@H]12 [ICI 164,384, reference compound] | – | – | – | – | Antagonism at 1 μM (% of full antagonism) ([2]; With estradiol (E2)): 100 % of full antagonism; Maximal Cell Kill (% fraction of dead cells) ([2]; With estradiol (E2)): 100 % fraction of dead cells; Maximal Cell Kill (% fraction of dead cells) ([2]; Without estradiol (E2)): 100 % fraction of dead cells; Maximal Agonism (% of E2) ([2]; Without estradiol (E2)): 9 % of E2
ClCCOc1ccc(/C(=C(/CCCl)c2ccc(Cl)cc2)c2ccc(Cl)cc2)cc1 [No. 6, (E)-4-Chloro-1-[4-(2-chloroethoxy)phenyl]-1,2-bis(4-chlorophenyl)-but-1-ene] | 0% | 40% | 47% | 16% | –
Fc1ccc(/C(=C(\CCCl)c2ccccc2)c2ccc(OCCOCCCl)cc2)cc1 [No. 15] | – | – | – | – | Antagonism at 1 μM (% of full antagonism) ([2]; With estradiol (E2)): 5 % of full antagonism; Maximal Cell Kill (% fraction of dead cells) ([2]; With estradiol (E2)): 9 % fraction of dead cells; Maximal Cell Kill (% fraction of dead cells) ([2]; Without estradiol (E2)): 82 % fraction of dead cells; Maximal Agonism (% of E2) ([2]; Without estradiol (E2)): 74 % of E2
OCCNc1ccc(/C(=C(/CCCl)c2ccccc2)c2ccccc2)cc1 [No. 41, (Z)-2-[4-(4-Chloro-1,2-diphenyl-but-1-enyl)phenylamino]ethanol] | 54% | 47% | 0% | 10% | –
ClCC/C(=C(\c1ccccc1)c1ccc(OCCN2CCCCC2)cc1)c1ccccc1Cl [No. 38, (Z)-1-(2-{4-[4-Chloro-2-(2-chlorophenyl)-1-phenylbut-1-enyl]phenoxy}-ethyl)piperidine] | 0% | 100% | 99% | 68% | –
CC/C(=C(\c1ccccc1)c1ccc(OCCN(C)C)cc1)c1ccccc1 [Tamoxifen, reference compound] | – | – | – | – | Disappeared tumors (per cent of total tumor number) [3]: 0%; Growing tumors (per cent of total tumor number) [3]: 36%; Regressing tumors (per cent of total tumor number) [3]: 8%; Stable tumors (per cent of total tumor number) [3]: 56%
CN(C)CCOc1ccc(/C(=C(/CCCl)c2ccc(F)cc2)c2ccccc2)cc1 [No. 25, (Z)-(2-{4-[4-Chloro-2-(4-fluorophenyl)-1-phenylbut-1-enyl]phenoxy}ethyl)-dimethylamine] | – | – | – | – | Estrogenic and antiestrogenic action (in words) [1]: weak estrogenic and no antiestrogenic action
OCCCOc1ccc(/C(=C(/CCCl)c2ccccc2)c2ccccc2)cc1 [No. 35, (Z)-3-[4-(4-Chloro-1,2-diphenylbut-1-enyl)phenoxy]propan-1-ol] | 45% | – | – | – | –
E-3-(4-Chloro-1-{4-[2-(2-hydroxyethoxy)ethoxy]phenyl}-2-phenylbut-1-enyl)phenol [Example 11] | – | – | – | – | Estrogenic and antiestrogenic action (in words) [1]: weak estrogenic and no antiestrogenic action; Antagonism at 1 μM (% of full antagonism) ([2]; With estradiol (E2)): 0 % of full antagonism; Maximal Cell Kill (% fraction of dead cells) ([2]; With estradiol (E2)): 55 % fraction of dead cells; Maximal Cell Kill (% fraction of dead cells) ([2]; Without estradiol (E2)): 26 % fraction of dead cells; Maximal Agonism (% of E2) ([2]; Without estradiol (E2)): 14 % of E2
COc1ccc(/C(=C(/CCCl)c2ccc(Cl)cc2)c2ccc(OCCN(C)C)cc2)cc1 [No. 27, (E)-(2-{4-[4-Chloro-2-(4-chlorophenyl)-1-(4-methoxyphenyl)but-1-enyl]phenoxy}-ethyl)dimethylamine] | – | – | – | – | Killing of MCF-7 cells at the highest investigated concentration (in words) [2]: kill MCF-7 cells (human breast cancer cells) effectively
Oc1cccc(/C(=C(\CCCl)c2ccccc2)c2ccc(OCCn3ccnc3)cc2)c1 [No. 39, (E)-3-{4-Chloro-1-[4-(2-imidazol-1-yl-ethoxy)phenyl]-2-phenyl-but-1-enyl}-phenol] | 0% | 78% | 68% | 17% | Killing of MCF-7 cells at the highest investigated concentration (in words) [2]: kill MCF-7 cells (human breast cancer cells) effectively
COc1ccccc1/C(CCCl)=C(/c1ccccc1)c1ccc(OCCN2CCCCC2)cc1 [No. 30, (Z)-1-(2-{4-[4-Chloro-2-(2-methoxyphenyl)-1-phenylbut-1-enyl]phenoxy}-ethyl)piperidine] | 5% | 92% | 91% | 4% | –
